Data published in article PMC4804716 (The FEBS journal, 2015).

Tests used:
[1] = Cyclic voltammetry of menadione derivatives; assay type: physicochemical; details: DMSO
[2] = biological target: T1, Schistosoma mansoni thioredoxin glutathione reductase (SmTGR) (Schistosoma mansoni, UniProt Q962Y6); experiment: SmTGR DTNB assay; assay type: biochemical
T1 sequence (Q962Y6 1-598): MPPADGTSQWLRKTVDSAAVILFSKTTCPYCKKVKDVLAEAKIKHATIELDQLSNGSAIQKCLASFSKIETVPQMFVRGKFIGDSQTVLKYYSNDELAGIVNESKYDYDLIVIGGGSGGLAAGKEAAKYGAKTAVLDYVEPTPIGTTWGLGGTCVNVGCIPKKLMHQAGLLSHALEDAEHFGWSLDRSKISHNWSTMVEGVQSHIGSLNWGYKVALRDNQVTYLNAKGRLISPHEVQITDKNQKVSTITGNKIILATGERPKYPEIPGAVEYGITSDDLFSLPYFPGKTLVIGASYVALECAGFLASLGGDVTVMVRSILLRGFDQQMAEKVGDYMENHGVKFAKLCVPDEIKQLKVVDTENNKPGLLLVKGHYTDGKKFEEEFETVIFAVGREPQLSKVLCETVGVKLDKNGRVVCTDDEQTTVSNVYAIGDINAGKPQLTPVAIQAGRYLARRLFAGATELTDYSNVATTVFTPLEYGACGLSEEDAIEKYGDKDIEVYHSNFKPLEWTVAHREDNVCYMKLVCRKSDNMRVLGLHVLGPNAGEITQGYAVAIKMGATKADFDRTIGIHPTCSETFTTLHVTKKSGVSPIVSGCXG

S. mansoni worms = experiment: Antischistosomal activity against adult, ex vivo worms; assay type: cell-based, Schistosoma mansoni
[3] = pKa estimation by absorption spectrophotometry; assay type: physicochemical
[4] = Glutathionylation reaction kinetics; assay type: physicochemical; details: pH 7.5
[5] = Cytotoxicity against human MRC-5 cells; assay type: cell-based; details: human lung MRC-5 fibroblasts (MRC-5SV2 cells)
[6] = biological target: T1, Schistosoma mansoni thioredoxin glutathione reductase (SmTGR); experiment: Time-dependent inactivation of SmTGR; details: high inhibitor concentrations, 5 min incubation without NADPH

- Epa1 ([1]; 0.1 M n-Bu4NPF6, v = 200 mV s^−1, reference KCl(3 M)/Ag/AgCl, first wave): −0.215 V
- Ipc1/Ipa1 ([1]; 0.1 M n-Bu4NPF6, v = 200 mV s^−1, first wave): 1.67
- E^1½ ([1]; E½ = (Epc+Epa)/2, 0.1 M n-Bu4NPF6, reference KCl(3 M)/Ag/AgCl, first wave): −0.271 V
- ΔEp (first wave) ([1]; ΔE = Epa-Epc, 0.1 M n-Bu4NPF6, v = 200 mV s^−1): 111 mV
- IC50 [2]: 0.046 µM
- pKa [3]: ~7.1
- SmTGR inactivation in the absence of NADPH [6]: resulted in inactivation
Compound: COc1ccc(OCC2=C(C(F)F)C(=O)c3ccccc3C2=O)cc1C(F)(F)F [Compound 9, 2-(difluoromethyl)-3-((4-methoxy-3-(trifluoromethyl)phenoxy)methyl)naphthalene-1,4-dione]
- antischistosomal activity against cultured ex vivo worms (S. mansoni worms; 50 μM compound alone): inactive
- killing of worms whether RBCs were present or not (S. mansoni worms; 50 μM, with or without human red blood cells (10 μl/well)): no effect on killing the worms
- decrease of the k2 values compared to the difluoromenadione itself [4]: ~10 fold
- IC50 at 3 days [5]: 11.2 µM
